Results taken from patent publication US20210221866A1, “PROTEASE-RESISTANT LIPIDATED GLP-1 ANALOGS” (MEDIMMUNE LIMITED, priority 2015, published 2021).
Where two headings read alike, the source gives them in different places. Numbered stars: 1 amine (or outer) side, 2 acyl side, 3 side chain; on linkers, the order of the positions; unused ones are H or OH. Square brackets hold non-standard residues; d marks the D form. Side chains are listed from the residue outwards. Peptide text beside a SMILES is read from it. * marks the point of attachment. C18 diacid = O=C(O)CCCCCCCCCCCCCCCCC(=O)*; γGlu = O=C(O)[C@H](CCC(=O)[*:2])N[*:1]; αMeF = C[C@](N)(Cc1ccccc1)C(=O)O; αMeK = C[C@](N)(CCCCN)C(=O)O; αMeS = C[C@](N)(CO)C(=O)O; AEEA = NCCOCCOCC(=O)O; Aib = CC(C)(N)C(=O)O

Key:
Format in all cases: cell-based
[1] = molecular target: T1, human GLP-1 receptor (GLP-1R) (Homo sapiens, UniProt P43220); experiment: cAMP assay, human GLP-1R cells; conditions: cAMP activity
T1 construct: expressed in transfected cells; host or cells: HEK293 cells or CHO cells
Method in brief: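 Peptide-stimulated cAMP measured by two-step HTRF after a 30 min room-temperature incubation with receptor-expressing cells (hGLP-1R, hGIPR at 1×10^5 cells/ml; hGCGR at 2×10^5 cells/ml). Duplicate dilutions; EC50 from 4-parameter logistic fit of % Delta F.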

[2] = molecular target: T2, human glucagon receptor (GCGR) (Homo sapiens, UniProt P47871); experiment: cAMP assay, human GCGR cells; conditions: cAMP activity; second determination (n2); read-out: Primary assay EC50 Gluc-R
T2 construct: expressed in transfected cells; host or cells: HEK293 cells or CHO cells
Method: (§1) Sample dilutions are made in duplicate.
(§2) A frozen cryo-vial of cells expressing the receptor of interest is thawed rapidly in a water-bath, transferred to pre-warmed assay buffer and spun at 240×g for 5 minutes. Cells are re-suspended in assay buffer at a batch-dependent optimized concentration (e.g. hGCGR cells at 2×10^5 cells/ml, hGLP-1R and hGIPR cells at 1×10^5 cells/ml).
(§3) To this, 5 μL cell suspension is added and the plates incubated at room temperature for 30 minutes.
(§4) cAMP levels are measured using a commercially available cAMP dynamic 2 HTRF kit (Cisbio, Cat #62AM4PEJ), following the two step protocol as per manufacturer's recommendations. In brief; anti-cAMP cryptate (donor fluorophore) and cAMP-d2 (acceptor fluorophore) are made up separately by diluting each 1/20 in conjugate & lysis buffer provided in the kit. 5 μL anti-cAMP cryptate is added to wells of the assay plate, and 5 μL cAMP-d2 is added to wells except non-specific binding (NSB) wells, to which conjugate and lysis buffer are added. […] EC50 values of the synthetic peptides determined in cAMP assays are then determined.
(§5) Data is transformed to % Delta F as described in the manufacturer's guidelines and analyzed by 4-parameter logistic fit to determine EC50 values. […] To compare the balance of activities at the GLP-1R and GCGR between different peptides and across different conditions, these can be correlated, where the EC50's are related to those of comparator peptides.

[3] = molecular target: T3, human glucose-dependent insulinotropic peptide receptor (GIPR) (Homo sapiens, UniProt P48546); experiment: cAMP assay, human GIPR cells; conditions: cAMP activity, read-out: Primary assay EC50 GIP-R
T3 construct: expressed in transfected cells; host or cells: HEK293 cells or CHO cells
T3 sequence (P48546 22-466): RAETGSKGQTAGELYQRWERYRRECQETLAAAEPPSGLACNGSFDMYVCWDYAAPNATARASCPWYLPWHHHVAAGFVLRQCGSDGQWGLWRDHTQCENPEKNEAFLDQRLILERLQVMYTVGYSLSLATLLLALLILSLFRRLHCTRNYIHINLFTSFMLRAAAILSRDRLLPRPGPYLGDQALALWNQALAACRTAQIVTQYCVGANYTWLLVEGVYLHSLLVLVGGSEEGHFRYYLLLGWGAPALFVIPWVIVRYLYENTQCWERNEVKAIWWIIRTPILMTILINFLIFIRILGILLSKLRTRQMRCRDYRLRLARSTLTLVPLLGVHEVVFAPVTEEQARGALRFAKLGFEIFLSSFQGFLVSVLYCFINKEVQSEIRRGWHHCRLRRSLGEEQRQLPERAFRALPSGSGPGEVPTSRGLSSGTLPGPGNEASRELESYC
Method: as §1, §2, §3, §4, §5

[4] = first determination (n1), read-out: Primary assay EC50 GLP-1R n1
[5] = mean of n1 and n2, read-out: Mean pM GLP-1R
[6] = second determination (n2), read-out: Primary assay EC50 GLP-1R n2

T2 sequence (P47871 26-477): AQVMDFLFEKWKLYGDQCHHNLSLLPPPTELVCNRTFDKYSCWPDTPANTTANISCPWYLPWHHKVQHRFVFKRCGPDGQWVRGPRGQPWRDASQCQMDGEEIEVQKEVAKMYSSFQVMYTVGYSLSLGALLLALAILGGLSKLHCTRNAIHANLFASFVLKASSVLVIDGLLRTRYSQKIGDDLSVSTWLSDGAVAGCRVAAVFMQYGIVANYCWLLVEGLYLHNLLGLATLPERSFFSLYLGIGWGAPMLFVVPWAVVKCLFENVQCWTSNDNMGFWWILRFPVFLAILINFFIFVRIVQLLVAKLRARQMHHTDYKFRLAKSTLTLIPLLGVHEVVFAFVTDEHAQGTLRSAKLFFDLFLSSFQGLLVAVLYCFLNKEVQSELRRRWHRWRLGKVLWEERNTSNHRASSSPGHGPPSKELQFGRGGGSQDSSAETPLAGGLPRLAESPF
T1 sequence (P43220 24-463): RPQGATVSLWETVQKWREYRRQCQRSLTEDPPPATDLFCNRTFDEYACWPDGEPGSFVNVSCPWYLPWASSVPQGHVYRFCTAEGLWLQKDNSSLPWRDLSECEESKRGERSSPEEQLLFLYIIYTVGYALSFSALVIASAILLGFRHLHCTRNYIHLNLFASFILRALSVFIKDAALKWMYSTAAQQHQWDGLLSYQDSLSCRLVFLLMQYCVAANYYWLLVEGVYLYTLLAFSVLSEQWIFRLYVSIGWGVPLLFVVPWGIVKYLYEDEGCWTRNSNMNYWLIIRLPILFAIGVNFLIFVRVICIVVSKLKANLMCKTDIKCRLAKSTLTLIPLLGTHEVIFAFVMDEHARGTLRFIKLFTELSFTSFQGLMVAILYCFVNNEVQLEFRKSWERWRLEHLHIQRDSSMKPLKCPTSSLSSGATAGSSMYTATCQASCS

Row | EC50 [1, 4] | EC50 [1, 5] | EC50 [1, 6] | EC50 [2] | EC50 ([3]; first determination (n1)) | EC50 ([3]; second determination (n2)) | SMILES
1 | 810 pM | 783 pM | 758 pM | ≥ 0.0252 µM | ≥ 0.025 µM | ≥ 0.0252 µM | CC[C@H](C)[C@H](NC(=O)[C@](C)(Cc1ccccc1)NC(=O)[C@H](CCC(=O)O)NC(=O)[C@](C)(CCCCN)NC(=O)[C@H](C)NC(=O)[C@H](C)NC(=O)[C@H](CCC(=O)O)NC(=O)CNC(=O)[C@H](CCC(=O)O)NC(=O)[C@H](CC(C)C)NC(=O)[C@](C)(Cc1ccccc1)NC(=O)[C@H](CO)NC(=O)[C@H](CCCCNC(=O)COCCOCCNC(=O)COCCOCCNC(=O)CC[C@H](NC(=O)CCCCCCCCCCCCCCCCC(=O)O)C(=O)O)NC(=O)[C@@H](NC(=O)[C@H](CC(=O)O)NC(=O)[C@H](CO)NC(=O)[C@@H](NC(=O)[C@](C)(Cc1ccccc1)NC(=O)[C@H](CO)NC(=O)CNC(=O)[C@H](CCC(=O)O)NC(=O)C(C)(C)NC(=O)[C@@H](N)Cc1c[nH]cn1)[C@@H](C)O)C(C)C)C(=O)N[C@@H](C)C(=O)N[C@@](C)(Cc1ccccc1)C(=O)N[C@H](C(=O)N[C@H](C(=O)N[C@@](C)(CCCCN)C(=O)NCC(=O)NCC(N)=O)C(C)C)C(C)C [compound 118]
2 | 6500 pM | 6140 pM | 5790 pM | ≥ 0.0253 µM | ≥ 0.025 µM | ≥ 0.0253 µM | CC(C)C[C@H](NC(=O)[C@](C)(Cc1ccccc1)NC(=O)[C@H](CO)NC(=O)[C@](C)(CO)NC(=O)[C@@H](NC(=O)[C@H](CC(=O)O)NC(=O)[C@H](CO)NC(=O)[C@@H](NC(=O)[C@](C)(Cc1ccccc1)NC(=O)[C@H](CO)NC(=O)CNC(=O)[C@H](CCC(=O)O)NC(=O)C(C)(C)NC(=O)[C@@H](N)Cc1c[nH]cn1)[C@@H](C)O)C(C)C)C(=O)N[C@@H](CCC(=O)O)C(=O)NCC(=O)N[C@@H](CCC(=O)O)C(=O)N[C@@H](C)C(=O)N[C@@H](C)C(=O)N[C@@](C)(CCCCN)C(=O)N[C@@H](CCC(=O)O)C(=O)N[C@@](C)(Cc1ccccc1)C(=O)N[C@@H](CCCCNC(=O)COCCOCCNC(=O)COCCOCCNC(=O)CC[C@H](NC(=O)CCCCCCCCCCCCCCCCC(=O)O)C(=O)O)C(=O)N[C@@H](C)C(=O)N[C@@](C)(Cc1ccccc1)C(=O)N[C@H](C(=O)N[C@H](C(=O)N[C@@](C)(CCCCN)C(=O)NCC(=O)NCC(N)=O)C(C)C)C(C)C [compound 106] (H-H[Aib]EGS[αMeF]TSDV[αMeS]S[αMeF]LEGEAA[αMeK]E[αMeF]K([AEEA-AEEA-γGlu-C18 diacid])A[αMeF]VV[αMeK]GG-NH2)
3 | ≥ 25000 pM | ≥ 25100 pM | ≥ 25100 pM | ≥ 0.0251 µM | ≥ 0.025 µM | ≥ 0.0251 µM | CC[C@H](C)[C@H](NC(=O)[C@](C)(Cc1ccccc1)NC(=O)[C@H](CCC(=O)O)NC(=O)[C@](C)(CCCCN)NC(=O)[C@H](C)NC(=O)[C@H](C)NC(=O)[C@H](CCC(=O)O)NC(=O)CNC(=O)[C@H](CCC(=O)O)NC(=O)[C@H](CC(C)C)NC(=O)[C@](C)(Cc1ccccc1)NC(=O)[C@H](CO)NC(=O)[C@](C)(CO)NC(=O)[C@@H](NC(=O)[C@H](CC(=O)O)NC(=O)[C@H](CCCCNC(=O)COCCOCCNC(=O)COCCOCCNC(=O)CC[C@H](NC(=O)CCCCCCCCCCCCCCCCC(=O)O)C(=O)O)NC(=O)[C@@H](NC(=O)[C@](C)(Cc1ccccc1)NC(=O)[C@H](CO)NC(=O)CNC(=O)[C@H](CCC(=O)O)NC(=O)C(C)(C)NC(=O)[C@@H](N)Cc1c[nH]cn1)[C@@H](C)O)C(C)C)C(=O)N[C@@H](C)C(=O)N[C@@](C)(Cc1ccccc1)C(=O)N[C@H](C(=O)N[C@H](C(=O)N[C@@](C)(CCCCN)C(=O)NCC(=O)NCC(N)=O)C(C)C)C(C)C [compound 121] (H-H[Aib]EGS[αMeF]TK([AEEA-AEEA-γGlu-C18 diacid])DV[αMeS]S[αMeF]LEGEAA[αMeK]E[αMeF]IA[αMeF]VV[αMeK]GG-NH2; N-terminus assumed)
